The target of the test is T1, NR2B receptor (Rattus norvegicus, UniProt P35439+Q00960).
T1 construct: NMDA, Polyamine source: Wistar Rat cerebral cortex; from tissue; host or cells: Wistar rat cerebral cortex
T1 sequence (Q00960 27-1482, other chains not shown): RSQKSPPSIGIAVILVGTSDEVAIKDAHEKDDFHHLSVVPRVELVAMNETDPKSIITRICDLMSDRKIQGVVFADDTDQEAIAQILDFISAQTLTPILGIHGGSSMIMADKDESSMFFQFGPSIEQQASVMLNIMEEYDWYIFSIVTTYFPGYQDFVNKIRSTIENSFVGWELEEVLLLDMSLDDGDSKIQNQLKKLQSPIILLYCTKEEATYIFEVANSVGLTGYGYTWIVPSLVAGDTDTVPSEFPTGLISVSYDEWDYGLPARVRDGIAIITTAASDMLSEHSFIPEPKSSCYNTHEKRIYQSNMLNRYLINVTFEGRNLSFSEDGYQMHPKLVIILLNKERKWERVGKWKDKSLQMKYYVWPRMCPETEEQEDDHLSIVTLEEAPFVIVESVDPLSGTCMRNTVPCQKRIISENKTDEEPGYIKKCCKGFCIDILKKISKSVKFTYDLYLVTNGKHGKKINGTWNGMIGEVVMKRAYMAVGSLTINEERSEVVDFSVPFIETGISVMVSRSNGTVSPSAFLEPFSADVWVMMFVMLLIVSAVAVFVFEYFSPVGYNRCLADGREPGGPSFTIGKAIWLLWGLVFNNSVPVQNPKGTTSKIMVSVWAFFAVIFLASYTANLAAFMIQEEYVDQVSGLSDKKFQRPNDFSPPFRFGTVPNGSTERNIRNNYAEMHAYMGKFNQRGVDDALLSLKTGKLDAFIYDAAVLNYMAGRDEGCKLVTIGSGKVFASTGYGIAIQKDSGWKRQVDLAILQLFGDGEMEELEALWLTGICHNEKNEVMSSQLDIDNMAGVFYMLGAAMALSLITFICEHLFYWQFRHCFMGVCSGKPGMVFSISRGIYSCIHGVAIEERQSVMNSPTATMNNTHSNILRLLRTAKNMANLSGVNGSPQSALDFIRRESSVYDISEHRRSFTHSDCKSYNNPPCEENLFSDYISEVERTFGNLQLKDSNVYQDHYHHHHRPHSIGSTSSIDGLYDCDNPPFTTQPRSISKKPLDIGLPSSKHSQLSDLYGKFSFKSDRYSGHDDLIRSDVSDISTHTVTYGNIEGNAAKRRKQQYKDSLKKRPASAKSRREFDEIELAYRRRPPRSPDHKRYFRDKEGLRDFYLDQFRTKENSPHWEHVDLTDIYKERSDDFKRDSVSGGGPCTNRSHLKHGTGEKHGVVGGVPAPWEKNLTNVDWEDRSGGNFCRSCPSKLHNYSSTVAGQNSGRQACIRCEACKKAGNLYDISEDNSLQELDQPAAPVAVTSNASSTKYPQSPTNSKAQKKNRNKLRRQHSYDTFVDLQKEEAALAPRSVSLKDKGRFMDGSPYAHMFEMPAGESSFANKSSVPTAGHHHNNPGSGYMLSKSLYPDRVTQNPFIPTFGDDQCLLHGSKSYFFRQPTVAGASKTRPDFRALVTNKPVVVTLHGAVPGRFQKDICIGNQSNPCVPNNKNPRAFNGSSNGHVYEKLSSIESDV
The test can be described thus: In vitro affinity measurement, [^3H]Ifenprodil radioligand binding (NMDA, Polyamine). The following applies: Wistar Rat cerebral cortex; ligand [^3H]Ifenprodil; 2 hours at 4° C.; six concentrations tested in duplicate.
For orientation: Ki means the dissociation constant of the complex between target and ligand, obtained from inhibition or displacement. Lower therefore signals a stronger hold on the target. Consider `COc1cc(CNC(=N)c2ccc(OC(F)(F)F)cc2)cc(OC)c1` [EA4, N-(3,5-dimethoxybenzyl)-4-trifluoromethoxyphenyl amidine], for which the Ki is less than 11 nM.

Regarding `COc1ccc(OC)c(CNC(=N)c2ccc(OC(F)(F)F)cc2)c1` [EA5, N-(2,5-dimethoxybenzyl)-4-trifluoromethoxyphenyl amidine], the Ki was less than 11 nM.

In turn, `COc1cccc(OC)c1CNC(=N)c1ccc(OC(F)(F)F)cc1` [EA6, N-(2,6-dimethoxybenzyl)-4-trifluoromethoxyphenyl amidine] displayed a Ki of less than 2 nM.

`COc1cccc(CNC(=N)c2ccc(OC(F)(F)F)cc2)c1OC` [EA7, N-(2,3-dimethoxybenzyl)-4-trifluoromethoxyphenyl amidine] registered a Ki greater than 100 nM.

In turn, `COc1cc(CNC(=N)c2ccc(OC(F)(F)F)cc2)c(OC)cc1Cl` [EA8, N-(2,5-dimethoxy-4-chlorobenzyl)-4-trifluoromethoxyphenyl amidine] came in with a Ki of less than 11 nM.

Molecule `COc1ccc(Cl)cc1CNC(=N)c1ccc(OC(F)(F)F)cc1` [EA9, N-(2-methoxy-5-chlorobenzyl)-4-trifluoromethoxyphenyl amidine] yielded an inhibitory constant (Ki) of less than 2 nM.

Regarding `COc1ccc(Br)cc1CNC(=N)c1ccc(OC(F)(F)F)cc1` [EA10, N-(2-methoxy-5-bromobenzyl)-4-trifluoromethoxyphenyl amidine], the Ki is less than 2 nM.

Turning to `COc1cc(Cl)cc(CNC(=N)c2ccc(OC(F)(F)F)cc2)c1` [EA11, N-(3-methoxy-5-chlorobenzyl)-4-trifluoromethoxyphenyl amidine], the Ki is less than 11 nM.

Molecule `COc1ccccc1CNC(=N)c1ccc(I)cc1` [EA12, N-(2-methoxybenzyl)-4-iodophenyl amidine] registered a Ki of less than 11 nM.

In turn, `N=C(NCc1cccc(Cl)c1)c1ccc(I)cc1` [EA13, N-(3-chlorobenzyl)-4-iodophenyl amidine] came in with a Ki of less than 11 nM.

`N=C(NCc1cc(Cl)cc(Cl)c1)c1ccc(I)cc1` [EA14, N-(3,5-dichlorobenzyl)-4-iodophenyl amidine]: the Ki is less than 2 nM.

The molecule `N=C(NCc1cc(Cl)cc(OCCF)c1)c1ccc(OC(F)(F)F)cc1` [EA15, N-(3-(2-fluoroethoxy)-5-chlorobenzyl)-4-trifluoromethoxyphenyl amidine] had a Ki of less than 11 nM.

As for `N=C(NCc1cc(Br)ccc1OCCF)c1ccc(OC(F)(F)F)cc1` [EA16], the Ki was less than 11 nM.

(Values after patent US7799947B2, “In vivo imaging compounds” (Hammersmith Imanet Limited, priority 2005, dated 2010).)
